The numbers were not newly measured in article PMC3902791 (Molecular imaging and biology : MIB : the official …, 2012), which cites them from elsewhere.

For series [1] the following is noted: humans; cited from earlier work.
For another series, the system named is monkey. Conditions: intravenous injection; cited from earlier work.
In another series the test system is dog. Conditions: cited from earlier work.

Like-named read-outs stand apart in the source and are kept apart here.

For the molecule `C[11C](=O)O` [^11C-ACE, ^11C-labeled acetate], in series [1], the effective dose is listed as 0.0049 mSv/MBq; the “radiation absorbed dose, intestines” value is 0.01–0.011 mGy/MBq; the “radiation absorbed dose, kidneys” value is recorded as 0.0093 mGy/MBq; the “radiation absorbed dose, liver” value was 0.006 mGy/MBq. Further, in series [1], the “radiation absorbed dose, pancreas” value is recorded as 0.017 mGy/MBq and the “radiation absorbed dose, urinary bladder” value is on record as 0.0028 mGy/MBq.

`O=C([O-])CF.[Na+]` [sodium fluoroacetate]: the values for the LD50 in the series on monkey, with dog (intravenously) and with dog (orally) were 5 mg/kg, 0.06 mg/kg and 0.066 mg/kg, respectively.
